Test results from ChEMBL document CHEMBL1201862, “PubChem BioAssay data set” (2004).
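A five-concentration, 48-hour dose response in 96-well plates underlies each endpoint, interpolated linearly between surrounding concentrations. GI50: concentration for 50% inhibition of growth.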 The source made the active and inactive calls. No stated cut-off is given here; in the data, active = GI50 up to about 1.1 µM and inactive = higher.

Legend:
Assay in all cases: NCI-60 cell line screen, 48 h
[1] = system: CCRF-CEM
[2] = system: RXF 393
[3] = system: HOP-62
[4] = system: EKVX
[5] = system: NCI-H23
[6] = system: HL-60
[7] = system: HCC 2998
[8] = system: SN12C
[9] = system: UACC-62
[10] = system: SNB-75
[11] = system: M14
[12] = system: Malme-3M
[13] = system: SR
[14] = system: OVCAR-5
[15] = system: SK-OV-3
[16] = system: UACC-257
[17] = system: MOLT-4
[18] = system: RPMI-8226
[19] = system: NCI-H226
[20] = system: MDA-MB-231
[21] = system: NCI-H460
[22] = system: MDA-MB-435
[23] = system: BT-549
[24] = system: NCI-H522
[25] = system: LOX IMVI
[26] = system: K562
[27] = system: DU-145
[28] = system: HT-29
[29] = system: MDA-N
[30] = system: SNB-19
[31] = system: T47D
[32] = system: SF-539
[33] = system: HCT-15
[34] = system: MCF7
[35] = system: TK-10
[36] = system: HCT-116
[37] = system: KM12
[38] = system: U-251
[39] = system: SK-MEL-2
[40] = system: SF-268
[41] = system: OVCAR-3
[42] = system: UO-31
[43] = system: ACHN
[44] = system: SK-MEL-28
[45] = system: Hs-578T
[46] = system: A498
[47] = system: HOP-92
[48] = system: SF-295
[49] = system: IGROV-1
[50] = system: OVCAR-4
[51] = system: 786-0
[52] = system: COLO 205
[53] = system: A549
[54] = system: CAKI-1
[55] = system: PC-3
[56] = system: OVCAR-8
[57] = system: SW-620
[58] = system: NCI/ADR-RES
[59] = system: SK-MEL-5

Measured: GI50

COC(=O)C1=C(O)C(C(=O)OC)[C@@]2(O)[C@@H](C(=O)OC)[C@H](C)[C@@H](C)[C@@H]1[C@@H]2C(=O)OC (stereo partly drawn)
41.5 µM: [33]
inactive: [1] 60.5 µM | [2] 13.2 µM | [3] 89.5 µM | [4] 52.8 µM | [5] 75.2 µM | [6] 45.7 µM | [7] 37.8 µM | [8] > 100 µM | [9] 55.5 µM | [10] 57.7 µM | [11] 67.5 µM | [12] 83.2 µM | [13] 28.2 µM | [14] > 100 µM | [15] 49.4 µM | [16] 46.6 µM | [17] > 100 µM | [18] 51.1 µM | [19] 55.8 µM | [20] > 100 µM | [21] 44.9 µM | [22] 17.9 µM | [23] 37.5 µM | [24] 26.9 µM | [25] 51.9 µM | [26] 35.6 µM | [27] > 100 µM | [28] 55.7 µM | [29] 22 µM | [30] > 100 µM | [31] > 100 µM | [32] 35.6 µM | [34] 38.1 µM | [35] > 100 µM | [36] 66.1 µM | [37] 34.8 µM | [38] 86.5 µM | [39] 48.5 µM | [40] > 100 µM | [41] 27 µM | [42] 38.5 µM | [43] > 100 µM | [44] > 100 µM | [45] 27.4 µM | [46] > 100 µM

COCN1C(=O)[C@@H]2CCCN2C(=O)c2ccc(N)cc21
inactive: [47] > 100 µM | [1] > 100 µM | [2] > 100 µM | [3] > 100 µM | [4] > 100 µM | [5] > 100 µM | [6] > 100 µM | [7] > 100 µM | [8] > 100 µM | [9] > 100 µM | [10] > 100 µM | [11] > 100 µM | [13] > 100 µM | [14] > 100 µM | [15] > 100 µM | [16] > 100 µM | [17] > 100 µM | [18] > 100 µM | [48] > 100 µM | [19] > 100 µM | [20] > 100 µM | [49] > 100 µM | [21] > 100 µM | [50] > 100 µM | [51] > 100 µM | [22] > 100 µM | [23] > 100 µM | [24] > 100 µM | [25] > 100 µM | [26] > 100 µM | [27] > 100 µM | [28] > 100 µM | [52] > 100 µM | [29] > 100 µM | [30] > 100 µM | [53] > 100 µM | [32] > 100 µM | [54] > 100 µM | [34] > 100 µM | [35] > 100 µM | [36] > 100 µM | [37] > 100 µM | [38] > 100 µM | [39] > 100 µM | [40] > 100 µM | [41] > 100 µM | [55] > 100 µM | [56] > 100 µM | [42] > 100 µM | [57] > 100 µM | [43] > 100 µM | [44] > 100 µM | [58] > 100 µM | [45] > 100 µM | [46] > 100 µM | [59] > 100 µM
> 100 µM: [33]

O=c1[nH]ncc2[nH]c3c(c12)CCCc1ccccc1-3
28.5 µM: [33]
inactive: [47] 72.3 µM | [1] 39.9 µM | [2] 15.1 µM | [3] 67 µM | [4] 4.92 µM | [5] 40.6 µM | [6] 21.8 µM | [7] 27.9 µM | [8] 63.1 µM | [9] 23.7 µM | [11] 46.6 µM | [12] 96.2 µM | [14] 43.4 µM | [15] 28.6 µM | [16] 71.8 µM | [17] 17.5 µM | [18] 27.8 µM | [48] 32.5 µM | [19] 38.7 µM | [49] 55.2 µM | [21] 29.7 µM | [50] 44.5 µM | [51] 33 µM | [22] 25.7 µM | [23] 32.9 µM | [24] 48.9 µM | [25] 44.3 µM | [26] 12.9 µM | [27] 54.5 µM | [28] 31.1 µM | [52] 20.5 µM | [29] 29.6 µM | [30] 71.6 µM | [53] 33.3 µM | [31] 46.9 µM | [32] 30.1 µM | [54] 35.2 µM | [34] 29.4 µM | [35] 50.1 µM | [36] 27.4 µM | [37] 37.4 µM | [38] 38.6 µM | [39] 34.9 µM | [40] 23.6 µM | [41] 48.4 µM | [55] 64.1 µM | [56] 53.6 µM | [42] 43.4 µM | [57] 43.2 µM | [43] 32.8 µM | [58] 37.9 µM | [45] 5.53 µM | [46] 27.6 µM | [59] 22.4 µM
